Values of other authors, collected in patent US7208615B2, “Triple mineral salts of (-)-hydroxycitric acid and processes for preparing the same” (Laila Impex, priority 2004, dated 2007).

Columns and labels:
[1] = background art; forms lactone, liquid form unstable during storage
[2] = background art (US 5,783,603)

Compound | stability of free acid form [1] | hygroscopicity [2]
O=C(O)CC(O)(C(=O)O)C(O)C(=O)O (single isomer, unassigned; (-)) [(−)-hydroxycitric acid] | unstable | 
potassium salt of HCA |  | hygroscopic
